In paper PMC8365446, “Structural determinants and distribution of phosphate specificity in ribonucleotide reductases” (The Journal of Biological Chemistry, 2021):
Read-outs that look alike come from different tables or passages of the source.

Experiments:
[1] = system: T1, TVNrdJm; details: read-out: apparent KM; effector dTTP, adenosylcobalamin, TCEP, 20 mmol L^−1 MgCl2, Tris pH 8.0, 40 °C; apparent fitted value, called lower boundary by authors (substrate inhibition omitted)
T1 construct: gene nrdJ

[2] = system: T2, TVNrdJm; test: HPLC quantification of deoxyribonucleotide, Michaelis-Menten fit; assay type: biochemical, Thermus virus P74-23; details: effector dTTP, adenosylcobalamin, TCEP, 20 mmol L^−1 MgCl2, Tris pH 8.0, 40 °C
T2 construct: gene nrdJ; monomeric-type class II RNR; pET28b(+) NdeI/HindIII, E. coli BL21(DE3); apical loop P-A-G-R with A67, G68, R69

SMILES | Km [1] | Km [2]
Nc1nc2c(ncn2[C@@H]2O[C@H](COP(=O)(O)OP(=O)(O)O)[C@@H](O)[C@H]2O)c(=O)[nH]1 [GDP] | > 6850 µM | –
Nc1nc2c(ncn2[C@@H]2O[C@H](COP(=O)(O)OP(=O)(O)OP(=O)(O)O)[C@@H](O)[C@H]2O)c(=O)[nH]1 [GTP] | – | 300 ± 60 µM
